According to ChEMBL document CHEMBL1133403 (Bioorg Med Chem Lett, 2000):
The source made the active and inactive calls. The calls are words filed in the database; no cut-off is given here.

Tests used:
Progesterone receptor [1] = target: T1, Progesterone receptor (Homo sapiens, UniProt P06401); assay: Binding affinity against human progesterone receptor (hPR) in a competitive binding assay
T1 sequence (P06401 whole entry): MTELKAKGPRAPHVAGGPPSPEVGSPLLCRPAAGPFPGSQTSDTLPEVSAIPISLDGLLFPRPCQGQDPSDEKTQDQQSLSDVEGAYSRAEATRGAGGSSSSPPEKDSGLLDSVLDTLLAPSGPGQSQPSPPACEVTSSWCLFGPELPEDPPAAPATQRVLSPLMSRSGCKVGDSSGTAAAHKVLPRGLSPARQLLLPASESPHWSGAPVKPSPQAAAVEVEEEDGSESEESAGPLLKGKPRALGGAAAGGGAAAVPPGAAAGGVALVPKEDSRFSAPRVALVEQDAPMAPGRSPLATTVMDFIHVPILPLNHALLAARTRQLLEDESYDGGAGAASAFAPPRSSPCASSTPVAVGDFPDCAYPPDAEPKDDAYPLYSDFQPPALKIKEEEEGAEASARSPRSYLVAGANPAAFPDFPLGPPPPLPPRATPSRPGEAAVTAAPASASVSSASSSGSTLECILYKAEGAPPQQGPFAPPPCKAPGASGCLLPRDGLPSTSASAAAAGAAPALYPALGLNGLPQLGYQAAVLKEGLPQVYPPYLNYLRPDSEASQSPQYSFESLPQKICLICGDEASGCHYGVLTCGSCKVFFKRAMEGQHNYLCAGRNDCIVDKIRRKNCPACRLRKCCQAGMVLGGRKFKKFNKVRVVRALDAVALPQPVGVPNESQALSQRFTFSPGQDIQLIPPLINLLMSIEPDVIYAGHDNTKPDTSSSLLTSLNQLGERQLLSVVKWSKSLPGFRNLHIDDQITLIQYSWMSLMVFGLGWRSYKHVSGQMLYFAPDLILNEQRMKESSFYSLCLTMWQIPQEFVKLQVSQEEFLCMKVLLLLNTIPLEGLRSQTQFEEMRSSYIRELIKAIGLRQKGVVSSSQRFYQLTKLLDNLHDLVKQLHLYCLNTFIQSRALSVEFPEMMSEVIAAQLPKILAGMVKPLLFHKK

Progesterone receptor [2] = target: T1, Progesterone receptor; assay: Human progesterone receptor (hPR) agonist activity in T47D human breast cancer cell line; NA=not active; assay type: functional, cell-based
Progesterone receptor [3] = target: T1, Progesterone receptor; assay: Human progesterone receptor (hPR) agonist activity using cotransfection assay in CV-1 cells.; assay type: functional, cell-based
Progesterone receptor [4] = target: T1, Progesterone receptor; assay: Antagonist activity against human progesterone receptor (hPR) in T47D human breast cancer cell line; assay type: functional, cell-based
Progesterone receptor [5] = target: T1, Progesterone receptor; assay: Antagonist activity against human progesterone receptor (hPR) using cotransfection assay in CV-1 cells; assay type: functional, cell-based
[6] = target: T2, Mineralocorticoid receptor (Homo sapiens, UniProt P08235); assay: Cross-reactivity as binding to human mineralocorticoid receptor (hMR); assay type: functional
T2 sequence (P08235 whole entry): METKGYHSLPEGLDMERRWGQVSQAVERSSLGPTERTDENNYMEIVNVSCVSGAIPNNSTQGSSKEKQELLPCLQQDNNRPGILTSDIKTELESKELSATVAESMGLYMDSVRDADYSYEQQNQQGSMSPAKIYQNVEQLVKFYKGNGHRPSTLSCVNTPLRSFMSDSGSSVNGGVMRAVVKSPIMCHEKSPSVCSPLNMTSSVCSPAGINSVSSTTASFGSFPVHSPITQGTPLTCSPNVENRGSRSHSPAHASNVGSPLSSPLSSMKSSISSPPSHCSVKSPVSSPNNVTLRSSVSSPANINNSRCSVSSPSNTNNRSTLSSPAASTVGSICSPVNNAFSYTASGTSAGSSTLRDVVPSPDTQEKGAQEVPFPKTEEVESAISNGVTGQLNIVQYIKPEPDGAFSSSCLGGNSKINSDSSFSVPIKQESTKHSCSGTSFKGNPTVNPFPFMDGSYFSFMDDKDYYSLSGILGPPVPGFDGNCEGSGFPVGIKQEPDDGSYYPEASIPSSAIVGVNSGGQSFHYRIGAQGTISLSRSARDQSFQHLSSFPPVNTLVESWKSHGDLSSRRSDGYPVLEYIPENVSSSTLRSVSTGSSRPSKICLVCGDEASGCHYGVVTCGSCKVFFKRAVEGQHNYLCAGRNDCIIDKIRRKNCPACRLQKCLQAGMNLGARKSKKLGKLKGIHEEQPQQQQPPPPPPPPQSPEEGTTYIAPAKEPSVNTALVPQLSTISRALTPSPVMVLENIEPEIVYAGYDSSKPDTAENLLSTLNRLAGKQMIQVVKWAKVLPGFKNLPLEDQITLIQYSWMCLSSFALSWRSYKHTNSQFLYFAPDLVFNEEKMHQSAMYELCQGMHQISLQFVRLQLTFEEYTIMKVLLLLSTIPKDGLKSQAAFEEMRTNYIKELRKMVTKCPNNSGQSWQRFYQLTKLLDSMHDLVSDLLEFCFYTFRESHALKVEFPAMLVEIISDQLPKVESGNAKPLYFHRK

Androgen receptor = target: T3, Androgen receptor (Homo sapiens, UniProt P10275); assay: Cross-reactivity as binding to human androgen receptor (hAR); assay type: functional
T3 sequence (P10275 whole entry): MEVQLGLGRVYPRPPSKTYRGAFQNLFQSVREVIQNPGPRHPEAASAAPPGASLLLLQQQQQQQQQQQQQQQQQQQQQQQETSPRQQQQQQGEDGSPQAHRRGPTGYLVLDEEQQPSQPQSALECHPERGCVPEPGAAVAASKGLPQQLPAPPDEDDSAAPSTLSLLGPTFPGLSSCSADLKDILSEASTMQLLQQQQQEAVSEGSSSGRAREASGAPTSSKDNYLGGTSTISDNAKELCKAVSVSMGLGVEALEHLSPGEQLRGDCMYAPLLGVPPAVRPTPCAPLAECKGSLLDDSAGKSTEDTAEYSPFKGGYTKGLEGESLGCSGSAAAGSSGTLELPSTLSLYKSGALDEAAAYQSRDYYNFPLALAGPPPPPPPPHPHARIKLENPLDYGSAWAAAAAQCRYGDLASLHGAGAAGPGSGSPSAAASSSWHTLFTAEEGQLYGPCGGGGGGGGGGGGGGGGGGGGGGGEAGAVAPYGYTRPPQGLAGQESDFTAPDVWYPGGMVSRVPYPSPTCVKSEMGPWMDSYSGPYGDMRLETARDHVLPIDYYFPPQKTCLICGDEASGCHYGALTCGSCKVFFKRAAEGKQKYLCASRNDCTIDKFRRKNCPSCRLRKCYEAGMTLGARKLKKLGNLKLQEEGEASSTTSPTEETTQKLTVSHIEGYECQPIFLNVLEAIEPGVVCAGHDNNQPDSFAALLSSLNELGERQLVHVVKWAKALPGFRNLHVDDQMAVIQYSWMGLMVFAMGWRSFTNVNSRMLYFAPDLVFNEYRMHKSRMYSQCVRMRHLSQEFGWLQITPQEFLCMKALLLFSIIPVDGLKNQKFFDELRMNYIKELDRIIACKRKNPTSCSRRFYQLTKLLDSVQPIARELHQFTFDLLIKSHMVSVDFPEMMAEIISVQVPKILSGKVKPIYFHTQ

Glucocorticoid receptor [7] = target: T4, Glucocorticoid receptor (Homo sapiens, UniProt P04150); assay: Cross-reactivity as binding to human glucocorticoid receptor (hGR); assay type: functional
T4 sequence (P04150 whole entry): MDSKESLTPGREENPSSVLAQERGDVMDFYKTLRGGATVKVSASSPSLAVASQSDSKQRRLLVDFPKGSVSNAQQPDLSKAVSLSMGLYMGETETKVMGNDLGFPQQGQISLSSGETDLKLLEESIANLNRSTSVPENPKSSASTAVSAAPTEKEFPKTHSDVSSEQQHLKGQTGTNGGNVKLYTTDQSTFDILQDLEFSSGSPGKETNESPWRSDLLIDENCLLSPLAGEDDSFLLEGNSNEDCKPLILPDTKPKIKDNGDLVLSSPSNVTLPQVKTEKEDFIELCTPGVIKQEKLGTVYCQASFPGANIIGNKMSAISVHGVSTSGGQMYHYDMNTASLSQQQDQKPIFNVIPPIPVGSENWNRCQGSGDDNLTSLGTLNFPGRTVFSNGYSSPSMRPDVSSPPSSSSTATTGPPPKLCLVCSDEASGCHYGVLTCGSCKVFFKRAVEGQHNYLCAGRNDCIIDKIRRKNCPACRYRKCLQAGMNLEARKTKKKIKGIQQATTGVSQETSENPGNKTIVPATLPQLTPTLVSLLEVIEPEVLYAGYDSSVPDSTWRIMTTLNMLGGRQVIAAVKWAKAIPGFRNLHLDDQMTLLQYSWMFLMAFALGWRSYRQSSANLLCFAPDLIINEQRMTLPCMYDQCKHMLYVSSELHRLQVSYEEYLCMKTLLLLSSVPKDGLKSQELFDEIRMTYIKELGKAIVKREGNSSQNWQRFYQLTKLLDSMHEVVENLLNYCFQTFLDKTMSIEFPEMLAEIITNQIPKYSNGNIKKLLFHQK

Progesterone receptor [8] = target: T1, Progesterone receptor; assay: Human progesterone receptor (hPR) agonist activity expressed in CV-1 cells; assay type: functional, cell-based
Progesterone receptor [9] = target: T1, Progesterone receptor; assay: Human progesterone receptor (hPR) agonist activity in T47D human breast cancer cell line; assay type: functional, cell-based
[10] = target: T5, Glucocorticoid receptor (Homo sapiens) (UniProt P04150); assay: Percent inhibition of glucocorticoid receptor transcriptional activity at Dexamethasone EC50; not active; assay type: functional
T5 sequence (whole entry): T4 sequence (P04150 whole entry)

Glucocorticoid receptor [11] = target: T4, Glucocorticoid receptor; assay: Cross-reactivity as binding to human glucocorticoid receptor (hGR); NA=not active; assay type: functional
[12] = target: Estrogen receptor (Homo sapiens) (UniProt Q92731+P03372); assay: Percent inhibition of estrogen receptor transcriptional activity at estradiol EC50; NA=not active; assay type: functional
[13] = target: T2, Mineralocorticoid receptor; assay: Cross-reactivity as binding to human mineralocorticoid receptor (hMR); NA=not active; assay type: functional
[14] = target: T6, Mineralocorticoid receptor (Homo sapiens) (UniProt P08235); assay: Percent inhibition of mineralocorticoid receptor transcriptional activity at aldosterone EC50; NA=not active; assay type: functional
T6 sequence (whole entry): T2 sequence (P08235 whole entry)

Row | Compound | Ki (Progesterone receptor [1]) [nM] | EC50 (Progesterone receptor [2]) | EC50 (Progesterone receptor [3]) | IC50 (Progesterone receptor [4]) [nM] | IC50 (Progesterone receptor [5]) [nM] | EC50 (Progesterone receptor [9]) [nM] | other results
1 | CC1=CC(C)(C)Nc2ccc(-c3ccc(C=O)s3)cc21 | 80 | Not Active | Not Active | 78 | 729 |  | 
2 | CC1(C)Nc2ccc(-c3csc(C#N)c3)cc2C(C)(C)C1=O | 12.4 |  |  |  | 14 |  | IC50 [6]: 2700 nM; IC50 (Androgen receptor): 1100 nM; IC50 (Glucocorticoid receptor [7]): 900 nM; EC50 (Progesterone receptor [8]): 1190 nM
3 | CN(C)c1ccc([C@H]2C[C@]3(C)[C@@H](CC[C@]3(O)CCCO)[C@@H]3CCC4=CC(=O)CCC4=C32)cc1 [ONAPRISTONE] |  | Not Active | Not Active |  |  |  | 
4 | CC1=CC(C)(C)Nc2ccc(-c3ccc(Cl)s3)cc21 | 12 |  | Not Active | 151 | 43 | 2650 | 
5 | Cc1cc(C#N)sc1-c1ccc2c(c1)C(C)(C)C(=O)C(C)(C)N2 | 3.9 |  |  |  | 10 |  | IC50 [6]: 2100 nM; IC50 (Androgen receptor): 150 nM; IC50 (Glucocorticoid receptor [7]): 35 nM; EC50 (Progesterone receptor [8]): 350 nM
6 | CC1=CC(C)(C)Nc2ccc(-c3c(C)sc(C#N)c3C)cc21 | 36 |  | Not Active | 150 | 124 | 580 | 
7 | CC1=CC(C)(C)Nc2ccc(-c3sc(C#N)cc3C)cc21 | 26 |  | Not Active | 123 | 33 | 500 | IC50 [6]: 2000 nM; IC50 (Androgen receptor): 200 nM; IC50 (Glucocorticoid receptor [7]): 780 nM
8 | CC1=CC(C)(C)Nc2ccc(-c3cccs3)cc21 | 237 | Not Active | Not Active | 700 | 416 |  | 
9 | CC1=CC(C)(C)Nc2ccc(-c3ccc(C#N)s3)cc21 | 55 |  |  | 80 | 27 | 1800 | IC50 [13]: Not Active; IC50 (Androgen receptor): 1110 nM; Efficacy [14]: inactive; IC50 (Glucocorticoid receptor [7]): 3200 nM; EC50 (Progesterone receptor [8]): 2900 nM
10 | CC1=CC(C)(C)Nc2ccc(-c3sccc3C)cc21 | 25 | Not Active | Not Active | 105 | 232 |  | 
11 | Cc1cc(C#N)sc1-c1ccc2c(c1)C(C)CC(C)(C)N2 (configuration not stated) |  |  |  |  |  |  | IC50 [6]: 1000 nM; IC50 (Androgen receptor): 45 nM
12 | CC1=CC(C)(C)Nc2ccc(-c3cc(Br)cs3)cc21 | 32 |  |  | 190 | 105 | 3500 | 
13 | CC1=CC(C)(C)Nc2ccc(-c3ccc(Br)s3)cc21 | 31 | Not Active | Not Active | 71 | 65 |  | 

Now from value to compound, other results behind:

Row | Ki (Progesterone receptor [1]) [nM] | EC50 (Progesterone receptor [2]) | EC50 (Progesterone receptor [3]) | IC50 (Progesterone receptor [4]) [nM] | IC50 (Progesterone receptor [5]) [nM] | EC50 (Progesterone receptor [9]) [nM] | Compound | other results
14 | 37 | Not Active | Not Active | 102 | 245 |  | CC1=CC(C)(C)Nc2ccc(-c3csc(C=O)c3)cc21 | 
15 |  |  | Not Active |  |  |  | CC1=CC(C)(C)Nc2ccc(-c3cc(F)cc(C#N)c3)cc21 | Efficacy [10]: inactive; IC50 (Glucocorticoid receptor [11]): Not Active; IC50 [6]: > 1000 nM; Efficacy [12]: inactive
16 | 31 |  | Not Active | 120 | 109 | 1400 | CC1=CC(C)(C)Nc2ccc(-c3cc(C#N)sc3C)cc21 | 
17 | 249 | Not Active | Not Active | 250 | 242 |  | CC1=CC(C)(C)Nc2ccc(-c3cc(Br)c(C#N)s3)cc21 | 
18 | 433 |  | Not Active | 120 | 52 | 700 | CC1=CC(C)(C)Nc2ccc(-c3sc(C#N)cc3Br)cc21 | 
19 | > 100 | Not Active | Not Active | 278 | 318 |  | CC1=CC(C)(C)Nc2ccc(-c3ccsc3C#N)cc21 | 
